# Calls of active or inactive are those of the source. The rule behind the calls is not given here.
# Tested on: rodent carcinogenicity bioassays, tumor incidence
# Test: CCRIS carcinogenicity studies
# Conditions: Dose: 0, Dose: 0
# In short: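 Archive of carcinogenicity, mutagenicity, tumor promotion and tumor inhibition results drawn from journals, NCI reports and other sources, expert-reviewed; covers 1985-2011 and is no longer updated.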
smiles,measurement,setting,value
OC[C@@H](O)[C@@H](O)[C@H](O)[C@H](O)CO,carcinogen call,"Species: MOUSE, Strain/Sex: B6C3F1/FEMALE, Route: ORAL, 2.5, 5% IN THE DIET FOR 103 WK (STUDY DURATION: 103 WK), 2.5, 5% IN THE DIET FOR 103 WK (STUDY DURATION: 103 WK)",inactive; negative
same,carcinogen call,"Species: MOUSE, Strain/Sex: B6C3F1/FEMALE, Route: ORAL, 25000, 50000 PPM IN DIET, 25000, 50000 PPM IN DIET",inactive; negative
same,carcinogen call,"Species: MOUSE, Strain/Sex: B6C3F1/MALE, Route: ORAL, 2.5, 5% IN THE DIET FOR 103 WK (STUDY DURATION: 103 WK), 2.5, 5% IN THE DIET FOR 103 WK (STUDY DURATION: 103 WK)",inactive; negative
same,carcinogen call,"Species: MOUSE, Strain/Sex: B6C3F1/MALE, Route: ORAL, 25000, 50000 PPM IN DIET, 25000, 50000 PPM IN DIET",inactive; negative
same,carcinogen call,"Species: RAT, Strain/Sex: F344/FEMALE, Route: ORAL, 2.5, 5% IN THE DIET FOR 103 WK (STUDY DURATION: 103 WK), 2.5, 5% IN THE DIET FOR 103 WK (STUDY DURATION: 103 WK)",inactive; negative
same,carcinogen call,"Species: RAT, Strain/Sex: F344/FEMALE, Route: ORAL, 25000, 50000 PPM IN DIET, 25000, 50000 PPM IN DIET",inactive; negative
same,carcinogen call,"Species: RAT, Strain/Sex: F344/MALE, Route: ORAL, 2.5, 5% IN THE DIET FOR 103 WK (STUDY DURATION: 103 WK), 2.5, 5% IN THE DIET FOR 103 WK (STUDY DURATION: 103 WK)",inactive; negative
same,carcinogen call,"Species: RAT, Strain/Sex: F344/MALE, Route: ORAL, 25000, 50000 PPM IN DIET, 25000, 50000 PPM IN DIET",inactive; negative
CCCCNN,carcinogen call,"Species: MOUSE, Strain/Sex: SWISS/FEMALE, Route: ORAL, 0.0125% SOLUTION IN DRINKING WATER DAILY FOR LIFE FOR AN AVERAGE DAILY INTAKE OF 0, 1.3 MG (STUDY DURATION: 130 WK), 0.0125% SOLUTION IN DRINKING WATER DAILY FOR LIFE FOR AN AVERAGE DAILY INTAKE OF 0, 1.3 MG (STUDY DURATION: 130 WK), Tumor Site: Type of Lesion: LUNG: ADENOMA, LUNG: ADENOMA OR ADENOCARCINOMA",active; positive
same,carcinogen call,"Species: MOUSE, Strain/Sex: SWISS/MALE, Route: ORAL, 0.0125% SOLUTION IN DRINKING WATER DAILY FOR LIFE FOR AN AVERAGE DAILY INTAKE OF 0, 2.1 MG (STUDY DURATION: 130 WK), 0.0125% SOLUTION IN DRINKING WATER DAILY FOR LIFE FOR AN AVERAGE DAILY INTAKE OF 0, 2.1 MG (STUDY DURATION: 130 WK), Tumor Site: Type of Lesion: LUNG: ADENOMA, LUNG: ADENOMA OR ADENOCARCINOMA",active; positive
c1ccc2c(c1)c1c(c3cccnc32)O1,carcinogen call,"Species: MOUSE, Strain/Sex: CD-1/FEMALE, Route: INTRAPERITONEAL, 5, 10 AND 20 µL OF A 0.05 MOLAR SOLUTION ON DAYS 1, 8 AND 15 OF LIFE RESPECTIVELY (TOTAL DOSE: 1.75 UMOL) (STUDY DURA, 5, 10 AND 20 µL OF A 0.05 MOLAR SOLUTION ON DAYS 1, 8 AND 15 OF LIFE RESPECTIVELY (TOTAL DOSE: 1.75 UMOL) (STUDY DURA",inactive; negative
same,carcinogen call,"Species: MOUSE, Strain/Sex: CD-1/MALE, Route: INTRAPERITONEAL, 5, 10 AND 20 µL OF A 0.05 MOLAR SOLUTION ON DAYS 1, 8 AND 15 OF LIFE RESPECTIVELY (TOTAL DOSE: 1.75 UMOL) (STUDY DURA, 5, 10 AND 20 µL OF A 0.05 MOLAR SOLUTION ON DAYS 1, 8 AND 15 OF LIFE RESPECTIVELY (TOTAL DOSE: 1.75 UMOL) (STUDY DURA",inactive; negative
COP(=O)(OC)OC(=CCl)c1cc(Cl)c(Cl)cc1Cl,carcinogen call,"Species: MOUSE, Strain/Sex: B6C3F1/MALE, Route: ORAL, 8000, 16000 PPM IN DIET, 8000, 16000 PPM IN DIET, Tumor Site: Type of Lesion: LIVER: NEOPLASTIC NODULE OR HEPATOCELLULAR CARCINOMA",active; positive
same,carcinogen call,"Species: RAT, Strain/Sex: OSBORNE-MENDEL/MALE, Route: ORAL, 4250, 8500 PPM IN DIET, TWA, 4250, 8500 PPM IN DIET, TWA",inactive; negative
CCn1cc(C(=O)O)c(=O)c2cc3c(cc21)OCO3,carcinogen call,"Species: MOUSE, Strain/Sex: ICR/FEMALE, Route: ORAL, 50, 150, 500 PPM IN DIET FOR 78 WK (STUDY DURATION: 78 WK), 50, 150, 500 PPM IN DIET FOR 78 WK (STUDY DURATION: 78 WK)",inactive; negative
same,carcinogen call,"Species: MOUSE, Strain/Sex: ICR/MALE, Route: ORAL, 50, 150, 500 PPM IN DIET FOR 78 WK (STUDY DURATION: 78 WK), 50, 150, 500 PPM IN DIET FOR 78 WK (STUDY DURATION: 78 WK)",inactive; negative
same,carcinogen call,"Species: RAT, Strain/Sex: WISTAR/FEMALE, Route: ORAL, 30, 100, 300, 1000 PPM IN DIET FOR 104 WK (STUDY DURATION: 104 WK), 30, 100, 300, 1000 PPM IN DIET FOR 104 WK (STUDY DURATION: 104 WK)",inactive; negative
same,carcinogen call,"Species: RAT, Strain/Sex: WISTAR/MALE, Route: ORAL, 30, 100, 300, 1000 PPM IN DIET FOR 104 WK (STUDY DURATION: 104 WK), 30, 100, 300, 1000 PPM IN DIET FOR 104 WK (STUDY DURATION: 104 WK), Tumor Site: Type of Lesion: TESTIS: BENIGN LEYDIG CELL TUMOR",active; positive

# Source: PubChem BioAssay AID1259411 (Chemical Carcinogenesis Research Information System (CCRIS), 2018)
